The source of these data is US20120238549A1, “Nuclear Hormone Receptor Modulators” (ABBOTT LABORATORIES, priority 2011, published 2012).

Bounds are passed on as bounds.

For this assay, the target named is T1, Glucocorticoid Receptor (GR) (Homo sapiens, UniProt P04150).
T1 construct: purchased Invitrogen P2893
T1 sequence (P04150 1-777): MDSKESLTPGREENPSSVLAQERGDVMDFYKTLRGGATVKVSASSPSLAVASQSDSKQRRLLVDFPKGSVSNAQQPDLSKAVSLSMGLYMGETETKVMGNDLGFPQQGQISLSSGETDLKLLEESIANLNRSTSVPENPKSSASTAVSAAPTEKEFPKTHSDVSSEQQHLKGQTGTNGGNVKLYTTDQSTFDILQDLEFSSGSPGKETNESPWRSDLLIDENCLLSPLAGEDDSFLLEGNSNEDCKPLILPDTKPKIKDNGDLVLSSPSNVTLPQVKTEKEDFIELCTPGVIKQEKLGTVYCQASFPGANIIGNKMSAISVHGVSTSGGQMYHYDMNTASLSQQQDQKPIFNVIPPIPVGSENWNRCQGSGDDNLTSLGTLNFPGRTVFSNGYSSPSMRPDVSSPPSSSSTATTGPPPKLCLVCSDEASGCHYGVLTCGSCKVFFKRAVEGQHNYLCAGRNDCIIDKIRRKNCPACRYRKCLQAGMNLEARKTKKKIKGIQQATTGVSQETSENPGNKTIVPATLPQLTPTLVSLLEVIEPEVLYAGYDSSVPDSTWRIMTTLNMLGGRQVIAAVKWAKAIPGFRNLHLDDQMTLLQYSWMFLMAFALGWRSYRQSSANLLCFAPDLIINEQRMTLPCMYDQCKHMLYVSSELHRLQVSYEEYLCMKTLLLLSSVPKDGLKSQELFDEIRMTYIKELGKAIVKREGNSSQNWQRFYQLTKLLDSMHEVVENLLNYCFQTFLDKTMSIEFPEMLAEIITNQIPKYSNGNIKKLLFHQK
The assay is described as follows: GR Florescence Polarization Assay (PolarScreen Glucocorticoid Receptor Competitor Assay, Red). Particulars: Fluorescense polarization binding ranges; competition with fluorescent glucocorticoid, incubated overnight at 4° C. Here is the method:
GR Florescence Polarization Assay Florescence polarization assays were carried out using the PolarScreen™ Glucocorticoid Receptor Competitor Assay, Red from Invitrogen (P2893). The assay buffer was prepared according to the manufacturer's protocol and used to dilute the fluorescent glucocorticoid and GR. Compounds were prepared and serial diluted 1:4 in DMSO. Compound, fluorescent glucocorticoid and GR were added in a final volume of 20 μL and incubated overnight at 4° C. Fluorescent polarization was measured on the Perkinelmer Envision®.
Consider `Cc1ncccc1NC(=O)c1ccc2c(c1)COC(=O)[C@H]1CC(=O)CC[C@@]21Cc1ccccc1` [Example 110, (7aS,11aS)-11a-Benzyl-N-(2-methylpyridin-3-yl)-7,9-dioxo-5,7,7a,8,9,10,11,11a-octahydrodibenzo[c,e]oxepine-3-carboxamide], for which the half-maximal inhibitory concentration (IC50) is over 10000 nM.
`CCC[C@@]1(O)CC[C@@]2(CC)c3ccc(C(=O)Nc4cccnc4C)cc3CCC[C@H]2C1` (single isomer, unassigned) [Example 45] showed an IC50 of under 100 nM.
In the case of `Cc1ncccc1NC(=O)c1ccc2c(c1)CN(C)C[C@H]1CC(=O)CC[C@@]21Cc1ccccc1` [Example 108, (4aS,11bS)-11b-Benzyl-6-methyl-N-(2-methylpyridin-3-yl)-3-oxo-2,3,4,4a,5,6,7,11b-octahydro-1H-dibenzo[c,e]azepine-9-carboxamide] it was 1000 to 10000 nM; in that of `CC[C@@]1(O)CC[C@@]2(Cc3ccccc3)c3ccc(C(=O)Nc4ccc(-c5ccn[nH]5)nc4C)cc3CCC[C@H]2C1` [Example 87, (7aS,9R,11aS)-11a-Benzyl-9-ethyl-9-hydroxy-6,7,7a,8,9,10,11,11a-octahydro-5H-dibenzo[a,c]cycloheptene-3-carboxylic acid [2-methyl-6-(2H-pyrazol-3-yl)-pyridin-3-yl]-amide], under 100 nM.
`CC[C@@]12CC[C@](O)(CC3CC3)C[C@@H]1CCCc1cc(C(=O)Nc3cccnc3C)ccc12` [Example 51]: the IC50 was under 100 nM.
In the case of `Cc1ncccc1NC(=O)c1ccc2c(c1)CCC[C@@H]1C[C@](O)(CC#N)CC[C@]21Cc1ccccc1` [Example 67], the 50% inhibitory concentration (IC50) lay within 100 to 1000 nM.
“(3R,4aR,11bR)-11b-benzyl-3-methyl-2,3,4,4a,5,6,7,11b-octahydro-1H-dibenzo[a,c]cycloheptene-3,9-diol; compound with (3S,4aS,11bS)-11b-benzyl-3-methyl-2,3,4,4a,5,6,7,11b-octahydro-1H-dibenzo[a,c]cycloheptene-3,9-diol [Example 7]” had an IC50 of under 100 nM.
In the case of `Cc1ncccc1NC(=O)c1ccc2c(c1)CCC[C@@H]1C[C@@](C)(O)CC[C@@]21Cc1ccccc1.Cc1ncccc1NC(=O)c1ccc2c(c1)CCC[C@H]1C[C@](C)(O)CC[C@]21Cc1ccccc1` [Example 10, (7aR,9S,11aS)-11a-benzyl-9-hydroxy-9-methyl-6,7,7a,8,9,10,11,11a-octahydro-5H-dibenzo[a,c]cycloheptene-3-carboxylic acid (2-methyl-pyridin-3-yl)-amide; compound with (7aS,9R,11aR)-11a-benzyl-9-hydroxy-9-methyl-6,7,7a,8,9,10,11,11a-octahydro-5H-dibenzo[a,c]cycloheptene-3-carboxylic acid (2-methyl-pyridin-3-yl)-amide] it was under 100 nM; in that of “(3R,4aS,11bS)-11b-Benzyl-3-methyl-2,3,4,4a,5,6,7,11b-octahydro-1H-dibenzo[a,c]cycloheptene-3,9-diol; compound with (3S,4aR,11bR)-11b-benzyl-3-methyl-2,3,4,4a,5,6,7,11b-octahydro-1H-dibenzo[a,c]cycloheptene-3,9-diol [Example 6]”, under 100 nM.
As for `CC[C@]12CC[C@@](O)(CC(C)C)C[C@H]1CCCc1cc(C(=O)Nc3cccnc3C)ccc12` [Example 48], the 50% inhibitory concentration (IC50) was in the range of 100 to 1000 nM.
For the molecule `CCC[C@]1(O)CC[C@]2(CC)c3ccc(C(=O)Nc4cccnc4C)cc3OCC[C@@H]2C1` (single isomer, unassigned) [Example 120], the IC50 lay within 100 to 1000 nM.
The molecule `CC[C@@]1(O)CC[C@@]2(Cc3ccccc3)c3ccc(C(=O)Nc4nncs4)cc3CCC[C@H]2C1` [Example 74] yielded an IC50 of 100 to 1000 nM.
As for `Cc1ncccc1NC(=O)c1ccc2c(c1)C(=O)NC[C@H]1CC(O)(C(F)(F)F)CC[C@@]21Cc1ccccc1` (stereo partly drawn) [Example 22, (4aS,11bS)-11b-benzyl-3-hydroxy-N-(2-methylpyridin-3-yl)-7-oxo-3-(trifluoromethyl)-2,3,4,4a,5,6,7,11b-octahydro-1H-dibenzo[c,e]azepine-9-carboxamide], the 50% inhibitory concentration (IC50) was over 10000 nM.
For `Cc1ncccc1NC(=O)c1ccc2c(c1)CCC[C@H]1C[C@@](O)(CC#N)CC[C@@]21Cc1ccccc1` (racemic) [Example 65], the IC50 was under 100 nM.
Consider `COC[C@@]1(O)CC[C@@]2(Cc3ccccc3)c3ccc(C(=O)Nc4cccnc4C)cc3CCC[C@H]2C1` (racemic) [Example 18, (7aS,9R,11aS)-11a-Benzyl-9-hydroxy-9-methoxymethyl-6,7,7a,8,9,10,11,11a-octahydro-5H-dibenzo[a,c]cycloheptene-3-carboxylic acid (2-methyl-pyridin-3-yl)-amide; compound with (7aR,9S,11aR)-11a-benzyl-9-hydroxy-9-methoxymethyl-6,7,7a,8,9,10,11,11a-octahydro-5H-dibenzo[a,c]cycloheptene-3-carboxylic acid (2-methyl-pyridin-3-yl)-amide], for which the 50% inhibitory concentration (IC50) is under 100 nM.
`CC[C@]12C[C@H](O)[C@@](O)(c3ccccc3)C[C@H]1CCCc1cc(C(=O)Nc3cccnc3C)ccc12` (single isomer, unassigned) [Example 125] registered an IC50 of under 100 nM.
`CCC[C@]1(O)CC[C@]2(CC)c3ccc(C(=O)Nc4cccnc4C)cc3C=CC[C@@H]2C1` (single isomer, unassigned) [Example 130] displayed an IC50 of under 100 nM.
As for `CC[C@]1(O)CC[C@]2(CC)c3ccc(C(=O)Nc4cccnc4C)cc3CCC[C@@H]2C1` [Example 46], the IC50 was 100 to 1000 nM.
In turn, `CC[C@@]12CC[C@](O)(COCC(F)(F)F)C[C@@H]1CCCc1cc(C(=O)Nc3cccnc3C)ccc12` (racemic) [Example 92, (7aS,9R,11aR)-11a-ethyl-9-hydroxy-9-(2,2,2-trifluoro-ethoxymethyl)-6,7,7a,8,9,10,11,11a-octahydro-5H-dibenzo[a,c]cycloheptene-3-carboxylic acid (2-methyl-pyridin-3-yl)-amide: compound with (7aR,9S,11aS)-11a-ethyl-9-hydroxy-9-(2,2,2-trifluoro-ethoxymethyl)-6,7,7a,8,9,10,11,11a-octahydro-5H-dibenzo[a,c]cycloheptene-3-carboxylic acid (2-methyl-pyridin-3-yl)-amide] showed a half-inhibitory concentration (IC50) of under 100 nM.
On to `CCCOC[C@@]1(O)CC[C@@]2(Cc3ccccc3)c3ccc(C(=O)Nc4cccnc4C)cc3CCC[C@H]2C1` (racemic) [Example 101], for which the IC50 was under 100 nM.
Under `CC[C@]12CC[C@@](O)(c3ccccc3)C[C@H]1CCCc1cc(C(=O)Nc3cccnc3C)ccc12` (single isomer, unassigned) [Example 123] stands 100 to 1000 nM; under `CCC[C@]1(O)CC[C@]2(CC)c3ccc(-c4nc5ccccc5[nH]4)cc3CCC[C@@H]2C1` (single isomer, unassigned) [Example 148], 1000 to 10000 nM; under `CCC[C@]1(O)CC[C@]2(CC)c3ccc(C(=O)Nc4cccnc4C)cc3COC[C@@H]2C1` (single isomer, unassigned) [Example 137], 1000 to 10000 nM.
As for `CC[C@@]1(O)CC[C@@]2(Cc3ccccc3)c3c(cnn3C)CCC[C@H]2C1.CC[C@]1(O)CC[C@]2(Cc3ccccc3)c3c(cnn3C)CCC[C@@H]2C1` [Example 38, (6aS,8R,10aS)-10a-Benzyl-8-ethyl-1-methyl-1,4,5,6,6a,7,8,9,10,10a-decahydro-1,2-diaza-benzo[e]azulen-8-ol; compound with (6aR,8S,10aR)-10a-benzyl-8-ethyl-1-methyl-1,4,5,6,6a,7,8,9,10,10a-decahydro-1,2-diaza-benzo[e]azulen-8-ol], the concentration for half-maximal inhibition (IC50) lay in the range of 1000 to 10000 nM.
`CC[C@@]1(O)CC[C@@]2(Cc3ccccc3)c3ccc(C(=O)Nc4ccccc4N)cc3CCC[C@H]2C1` [Example 126, (7aS,9R,11aS)-11a-Benzyl-9-ethyl-9-hydroxy-6,7,7a,8,9,10,11,11a-octahydro-5H-dibenzo[a,c]cycloheptene-3-carboxylic acid (2-amino-phenyl)-amide] returned a half-inhibitory concentration (IC50) of under 100 nM.
On to `CC[C@@]1(O)CC[C@@]2(Cc3ccccc3)c3ccc(C(=O)Nc4cnccc4C)cc3CCC[C@H]2C1` [Example 71], for which the concentration for half-maximal inhibition (IC50) is under 100 nM.
Molecule `CC[C@]1(O)CC[C@]2(CC)c3ccc(C(=O)Nc4cccnc4C)cc3COC[C@@H]2C1` [Example 141] showed an IC50 of over 10000 nM.
Molecule `O=C1CCCC[C@H]2CC3(CC[C@@]12Cc1ccccc1)OCCO3` (racemic) [Example 37, (4aS,9aS)-4a-benzyloctahydrospiro[benzo[7]annulene-2,2′-[1,3]dioxolan]-5(1H)-one; compound with (4aR,9aR)-4a-benzyloctahydrospiro[benzo[7]annulene-2,2′-[1,3]dioxolan]-5(1H)-one] returned an IC50 of over 10000 nM.
`CC[C@@]1(O)CC[C@@]2(Cc3ccccc3)c3ccc(C(=O)Nc4ccc(-c5cn[nH]c5)nc4C)cc3CCC[C@H]2C1` [Example 88] registered a 50% inhibitory concentration (IC50) of under 100 nM.
